US20170247459A1, “COMBINATION THERAPY OF ANTIBODIES AGAINST HUMAN CSF-1R AND USES THEREOF” (HOFFMANN-LA ROCHE INC., priority 2012, published 2017)

Legend:
MC38 colon carcinoma = assay: Tumor growth inhibition with chemotherapy or cancer immunotherapy combinations in subcutaneous syngeneic MC38 colon carcinoma model; format: in vivo, C57BL/6N mice; details: for TCR (day 21) / TGI (day 21): compared to control antibody; for TGI (day 21): antibody 30 mg/kg i.p. weekly; for Median time to progression TV > 700 mm3: mouse, in vivo
Text: Inhibition of Tumor Growth Under Treatment with Anti-CSF-1R Monoclonal Antibody in Combination with Chemotherapy or Cancer Immunotherapy in Subcutaneous Syngeneic MC38 Colon Carcinoma Models

primary tumor growth = assay: Docetaxel combined with anti-mouse CSF-1R antibody (separate experiment); format: in vivo
Protocol: Docetaxel was administered 3 times weekly as 1 cycle followed by 3 weeks drug holiday.

Row | Compound | TCR (day 21) (MC38 colon carcinoma) | TGI (day 21) (MC38 colon carcinoma) [%] | TGI (day 21) (MC38 colon carcinoma; listed as IL2) [%] | Median time to progression TV > 700 mm3 (MC38 colon carcinoma) | npTCR (primary tumor growth; after 2 cycles of docetaxel) | TGI (primary tumor growth; after 2 cycles of docetaxel, docetaxel 3 mg/kg i.v., antibody 30 mg/kg i.p. weekly) [%] | median survival time (primary tumor growth; in vivo) [days]
1 | Proleukin: IL-2 (Proleukin, Novartis) | 0.53 | 47 | 47 | 21 |  |  | 
2 | CC(=O)O[C@@]12CO[C@@H]1C[C@H](O)[C@@]1(C)C(=O)[C@H](O)C3=C(C)[C@@H](OC(=O)[C@H](O)[C@@H](NC(=O)OC(C)(C)C)c4ccccc4)C[C@@](O)([C@@H](OC(=O)c4ccccc4)[C@H]21)C3(C)C [docetaxel] |  |  |  |  | 0.55 | 75 | 154
3 | O=C1[O][Pt]2([NH][C@@H]3CCCC[C@H]3[NH]2)[O]C1=O [Oxaliplatin] | 0.54 | 46 |  | 21 |  |  | 
